Among the data in patent publication US20140128367A1, “CYCLOALKYL-FUSED TETRAHYDROQUINOLINES AS CRTH2 RECEPTOR MODULATORS” (Merck Sharp & Dohme Corp., priority 2011, published 2014) are Ki values, retold here.

Like-named read-outs stand apart in the source and are kept apart here.

Usually Ki stands for a measure of affinity in units of concentration, obtained from inhibition or displacement.

Assay [1] has as its target T1, hCRTH2 (Homo sapiens, UniProt Q9Y5Y4).
T1 sequence (Q9Y5Y4 1-395): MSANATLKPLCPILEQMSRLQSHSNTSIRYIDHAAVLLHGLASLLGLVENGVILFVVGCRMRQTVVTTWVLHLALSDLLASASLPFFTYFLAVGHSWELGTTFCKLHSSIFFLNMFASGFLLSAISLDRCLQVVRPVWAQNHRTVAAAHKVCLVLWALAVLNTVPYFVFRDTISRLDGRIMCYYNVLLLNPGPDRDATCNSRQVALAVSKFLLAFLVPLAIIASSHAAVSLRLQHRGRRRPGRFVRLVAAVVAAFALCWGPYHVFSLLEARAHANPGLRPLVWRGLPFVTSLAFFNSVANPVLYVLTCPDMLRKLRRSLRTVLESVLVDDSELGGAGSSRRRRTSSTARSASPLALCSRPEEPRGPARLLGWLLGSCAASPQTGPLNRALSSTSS
The experiment in a line: biochemical. To be noted: Radioligand Binding Assay A, 3.0 nM [3H]PGD2, HEK-hCRTH2 membranes.
Procedure: Radioligand Binding Assay A.
Competing ligands were diluted in dimethylsulfoxide (Me2SO) that was kept constant at 1% (v/v) of the final incubation volume. The reaction was initiated by the addition of 8-20 μg of membrane protein prepared from a human embryonic kidney (HEK)-hCRTH2 cell line. Total and non-specific binding were determined in the absence and the presence of 10 μM PGD2, respectively. Under these conditions, specific binding (total minus non-specific) of the radioligand to the receptor reached equilibrium within 50 min and was stable up to 180 min. The reaction was routinely conducted for 60 min at room temperature and terminated by rapid filtration through prewetted (0.3% polyethyleneimine) 96-well printed Filtermate™ (Wallac) using a Tomtec® harvester (Hamden, Conn.). After washing with cold buffer, the filter was dried for 2 minutes in microwave, and Meltilex Scintillator sheet (Wallac) was melted on for 2 min.

Assay [2] concerns the target T1, hCRTH2. Further details: expressed in transfected cells; host or cells: HEK (human embryonic kidney) cell line expressing hCRTH2. Particulars: Radioligand Binding Assay B, 0.7 nM [3H]PGD2, HEK-hCRTH2 membranes; rated A-D.
Procedure: Radioligand Binding Assay B.
Competing ligands were diluted in dimethylsulfoxide (Me2SO) that was kept constant at 1% (v/v) of the final incubation volume. The reaction was initiated by the addition of 8-20 μg of membrane protein prepared from a HEK-hCRTH2 cell line. Total and non-specific binding were determined in the absence and the presence of 10 μM PGD2, respectively. Under these conditions, specific binding (total minus non-specific) of the radioligand to the receptor reached equilibrium within 50 min and was stable up to 180 min. The reaction was routinely conducted for 60 min at room temperature and terminated by rapid filtration through prewetted Unifilters GF/C (Packard), using a Tomtec MachIII semi-automated harvester (for HEK-hCRTH2). The filters were then washed with 4 mL of the same buffer and residual radioligand bound to the filter was determined by liquid scintillation counting following equilibration in 25 μl Ultima Gold F™ (Unifilter) (Packard).

As for `CCc1ccc(C(=O)N2c3cc(Cl)ccc3C(N(C(=O)CCC(=O)O)C3CCC3)C3CCCC32)cc1` (single isomer, unassigned) [17CQ, 4-[[cis, cis-6-chloro-4-(4-ethylbenzoyl)-2,3,3a,4,9,9a-hexahydro-1H-cyclopenta[b]quinolin-9-yl]cyclobutylamino]-4-oxobutanoic acid], in assay [1], the inhibition constant Ki is 2.4 nM.
Take `O=C(O)CCC(=O)N(C1CC1)[C@@H]1c2ccc(F)cc2N(C(=O)c2ccccc2)[C@@H]2CCC[C@@H]21` (racemic) [16D, 4-{cyclopropyl[cis, cis-6-fluoro-4-(phenylcarbonyl)-2,3,3a,4,9,9a-hexahydro-1H-cyclopenta[b]quinolin-9-yl]amino}-4-oxobutanoic acid]: the Ki in assay [2] was 20.1 to 200 nM.
